Laboratory results taken from patent US20240158446A1, “CYCLIC COMPOUND HAVING SELECTIVE INHIBITORY ACTION ON KRAS OVER HRAS AND NRAS” (CHUGAI SEIYAKU KABUSHIKI KAISHA, priority 2021, published 2024).

What was measured:
[1] = target: GDP-bound HRAS wild-type protein (Homo sapiens, UniProt P01112); experiment: Binding to HRAS by surface plasmon resonance (SPR), Single Cycle Kinetics; conditions: SPR, GDP-bound HRAS wild-type protein vs GDP-bound KRAS wild-type protein
[2] = test system: human lung cancer strain NCI-H441;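 further: cell proliferation inhibition after four days measured by CellTiter-Glo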
[3] = target: GDP-bound NRAS wild-type protein (Homo sapiens, UniProt P01111); experiment: Binding to NRAS by surface plasmon resonance (SPR), Single Cycle Kinetics; conditions: SPR, GDP-bound NRAS wild-type protein vs GDP-bound KRAS wild-type protein
Chain of GDP-bound NRAS wild-type protein (P01111 whole entry): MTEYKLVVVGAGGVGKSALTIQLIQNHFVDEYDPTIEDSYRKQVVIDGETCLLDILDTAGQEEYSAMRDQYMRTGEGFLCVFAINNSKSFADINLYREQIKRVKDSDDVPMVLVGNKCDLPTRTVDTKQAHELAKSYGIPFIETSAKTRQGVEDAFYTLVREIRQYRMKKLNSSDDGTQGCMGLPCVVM

[4] = target: GDP-bound KRAS wild-type protein (Homo sapiens, UniProt P01116); experiment: Binding to KRAS by surface plasmon resonance (SPR), Single Cycle Kinetics; conditions: SPR, Single Cycle Kinetics, GDP-bound KRAS wild-type protein; read-out: KRAS KD
Chain of GDP-bound KRAS wild-type protein (P01116 whole entry): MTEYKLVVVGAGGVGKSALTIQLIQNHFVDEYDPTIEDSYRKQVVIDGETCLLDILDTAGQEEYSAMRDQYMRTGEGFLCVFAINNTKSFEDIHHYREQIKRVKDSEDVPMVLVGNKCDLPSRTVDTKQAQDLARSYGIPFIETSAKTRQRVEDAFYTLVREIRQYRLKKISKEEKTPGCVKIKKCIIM

Chain of GDP-bound HRAS wild-type protein (P01112 whole entry): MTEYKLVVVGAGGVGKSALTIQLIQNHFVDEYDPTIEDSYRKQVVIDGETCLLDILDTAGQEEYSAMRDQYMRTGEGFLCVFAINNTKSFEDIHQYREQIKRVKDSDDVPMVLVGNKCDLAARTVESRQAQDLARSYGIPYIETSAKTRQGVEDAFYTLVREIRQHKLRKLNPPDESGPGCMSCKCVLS

IC50 [2]	Kd [4]	Structure (SMILES)	HRAS/KRAS (ratio of KD value for HRAS to KD value for KRAS) [1]	NRAS/KRAS (ratio of KD value for NRAS to KD value for KRAS) [3]
244 nM	0.19 nM	CC[C@H](C)[C@@H]1NC(=O)[C@H](CC)N(C)C(=O)C[C@@H](C(=O)N(C)C)N(C)C(=O)[C@H](C2CCCC2)N(C)C(=O)C2(CCC2)NC(=O)[C@@H]2COCCN2C(=O)[C@H](CCc2cc(F)c(C(F)(F)F)c(F)c2)NC(=O)CN(C)C(=O)[C@H](Cc2ccc(C(F)(F)F)cc2)N2CC/C=C\C[C@@H](C2=O)N(C)C(=O)CN(C)C1=O [PP1138]	A (a compound having 10 or more and less than 20 is denoted as A)	A (a compound having 10 or more and less than 20 is denoted as A)
322 nM	0.65 nM	CCCCN1CC(=O)NC2(CCC2)C(=O)N(C)[C@@H](C2CCCC2)C(=O)N(C)[C@H](C(=O)N(C)C)CC(=O)N(C)[C@@H](CC)C(=O)N[C@@H]([C@@H](C)CC)C(=O)N(C)CC(=O)N(C)[C@H]2C/C=C\CCN(C2=O)[C@@H](Cc2ccc(C(F)(F)F)cc2)C(=O)N(C)CC(=O)N[C@@H](CCc2cc(F)c(C(F)(F)F)c(F)c2)C1=O [PP1142]	A (a compound having 10 or more and less than 20 is denoted as A)	A (a compound having 10 or more and less than 20 is denoted as A)

More lines, now with the values behind:

Structure (SMILES)	IC50 [2]	Kd [4]	HRAS/KRAS (ratio of KD value for HRAS to KD value for KRAS) [1]	NRAS/KRAS (ratio of KD value for NRAS to KD value for KRAS) [3]
CC[C@H](C)[C@@H]1NC(=O)[C@H](CC)N(C)C(=O)C[C@@H](C(=O)N(C)C)N(C)C(=O)[C@H](C2CCCC2)N(C)C(=O)C2(CCC2)NC(=O)[C@@H]2CCN2C(=O)[C@H](CCc2cc(F)c(C(F)(F)F)c(F)c2)NC(=O)CN(C)C(=O)[C@H](Cc2ccc(C(F)(F)F)cc2)N2CC/C=C\C[C@@H](C2=O)N(C)C(=O)CN(C)C1=O [PP1139]	297 nM	0.43 nM	A (a compound having 10 or more and less than 20 is denoted as A)	A (a compound having 10 or more and less than 20 is denoted as A)
CC[C@H](C)[C@@H]1NC(=O)[C@H](CC)N(C)C(=O)C[C@@H](C(=O)N(C)C)N(C)C(=O)[C@H](C2CCCC2)N(C)C(=O)C2(CCC2)NC(=O)[C@H](C)NC(=O)[C@H](CCc2cc(F)c(C(F)(F)F)c(F)c2)NC(=O)CN(C)C(=O)[C@H](Cc2ccc(C(F)(F)F)cc2)N2CC/C=C\C[C@@H](C2=O)N(C)C(=O)CN(C)C1=O [PP1140, (2S,8S,11S,17S,20S,24S,27S,33S,35Z)-17-cyclopentyl-8-[2-[3,5-difluoro-4-(trifluoromethyl)phenyl]ethyl]-24-ethyl-N,N,4,11,16,19,23,29,32-nonamethyl-27-[(1S)-1-methylpropyl]-3,6,9,12,15,18,22,25,28,31,39-undecaoxo-2-[[4-(trifluoromethyl)phenyl]methyl]spiro[1,4,7,10,13,16,19,23,26,29,32-undecazabicyclo[31.5.1]nonatriacont-35-ene-14,1′-cyclobutane]-20-carboxamide]	1780 nM	0.15 nM	A (a compound having 10 or more and less than 20 is denoted as A)	A (a compound having 10 or more and less than 20 is denoted as A)
CCCN1CC(=O)NC2(CCC2)C(=O)N(C)[C@@H](C2CCCC2)C(=O)N(C)[C@H](C(=O)N(C)C)CC(=O)N(C)[C@@H](CC)C(=O)N[C@@H]([C@@H](C)CC)C(=O)N(C)CC(=O)N(C)[C@H]2C/C=C\CCN(C2=O)[C@@H](Cc2ccc(C(F)(F)F)cc2)C(=O)N(C)CC(=O)N[C@@H](CCc2cc(F)c(C(F)(F)F)c(F)c2)C1=O [PP1141]	424 nM	0.32 nM	A (a compound having 10 or more and less than 20 is denoted as A)	AA (a compound having 20 or more is denoted as AA)
